The values below are quoted from earlier work in patent US5629294A, “Compositions and methods for preventing adhesion formation” (University of Southern California, priority 1994, dated 1997).

The test system of data set [1] is platelet aggregation in response to ADP and collagen.
The test system of data set [2] is platelet accumulation associated with the administration of a collagen substrate and ADP. The note with it: baboon model, RGDV given at 0.35, 0.68 or 1.31 μmol/min.

In the case of RGDV, in data set [1], the “concentration necessary to effectively abolish platelet aggregation” value is 100 µM. Further, the platelet accumulation result in data set [2] is “dose-dependent reduction in platelet accumulation”.
